Assay results: patent US20080207671A1, “Diagnosis and treatment of diseases arising from defects in the tuberous sclerosis pathway” (The Regents of the University of Michigan, priority 2006, published 2008)
Entries after “also recorded” stand apart in the source; their conditions may differ.

Columns and labels:
[1] = test system: eukaryotic elongation factor 2 (eEF2); details: Horman et al.; cited from earlier work
[2] = test system: HEK293 cells; assay: Cell size of HEK293 cells by FACS; assay type: cell-based, human; details: 12.5 mM 2-DG or 20 nM rapamycin, 72 hours
Procedure: FIGS. 17a-17b show TSC2 plays roles for cell size control in response to energy starvation. […] HEK293 cells were cultured in the presence of 12.5 mM 2DG, TSC2 RNAi, or 20 nM rapamycin for 72 hours. Cells were harvested and FACS analysis was performed to determine cell size. The X-axis indicates relative cell size. Cell size distribution curve of the control, as indicated by the gray curve, is included in each panel for comparison purposes. […] Experiments are similar to those in panel A.

[3] = test system: acetyl CoA carboxylase (ACC) and eukaryote elongation factor 2 (eEF2); assay: Phosphorylation of the AMPK substrates ACC and eEF2; assay type: cell-based
[4] = test system: EEF8 (TSC2−/−) cells; assay: S6K and 4EBP1 phosphorylation in EEF8 (TSC2-/-) fibroblasts; assay type: cell-based
[5] = test system: S6K and 4EBP1; details: cited from earlier work
[6] = test system: TSC2; assay: TSC2/TSC1 phosphorylation in transfected HEK293 cells (mobility shift, 32P labelling, two-dimensional phosphopeptide mapping); assay type: cell-based, human
Procedure: (§1) HEK293 cells were seeded and maintained in Dulbecco's modified Eagle's medium (DMEM) containing 10% fetal bovine serum (FBS). Transfection was performed in serum-free conditions using Lipofectamine reagent (Invitrogen, Carlsbad, Calif.) in accordance with the manufacturer's instructions. In brief, 4 h after transfection, the cells were recovered in DMEM containing 10% FBS for 16 h and then starved for 16-24 h. Cells were then lysed in lysis buffer (10 mM Tris-HCl at pH 7.5, 100 mM sodium chloride, 1% NP-40, 1% Triton X-100, 50 mM sodium fluoride, 2 mM EDTA, 1 mM phenyl methylsulphonyl fluoride, 10 μg ml^−1 leupeptin and 10 μg ml^−1 aprotinine) and immunoprecipitated with the indicated antibodies and protein G-Sepharose beads. Immunocomplexes were analyzed by SDS-polyacrylamide gel electrophoresis (PAGE).
HEK293 cells were cotransfected with HA-tagged TSC2, Myc-tagged TSC1 and the indicated plasmids. Cells were phosphate- and serum-starved for 4 h before incubation with 0.25 mCi ml^−1 32P-orthophosphate (ICN) for 4 h.
Cells were washed once with ice-cold PBS and lysed. HA-tagged TSC2 was immunoprecipitated, resolved by SDS-PAGE and transferred to a PVDF membrane. Phosphorylated TSC2 was visualized by autoradiography and phosphopeptide mapping was then performed. In brief, the phosphorylated TSC2 bands were excised, fixed in methanol and incubated in 500 μl of 0.5% polyvinylpyrrolidone-40 dissolved in 100 mM acetic acid for 30 min at 37° C. The sample were then digested with 20 μg of TPCK-treated trypsin (Sigma) at 37° C. in 75 mM ammonium bicarbonate buffer at pH 8.0 containing 5% acetonitrile. After digestion, samples were dried under vacuum and suspended in 10 μl of water. Samples were spotted onto a cellulose plate and first dimensional electrophoresis was performed using 1% ammonium bicarbonate buffer at pH 8.9. The plates were separated by chromatography in the second dimension in chromatography buffer (n-butanol:pyridine:acetic acid:water; 20:24:6:30). The plates were dried and phosphopeptides were visualized by autoradiography.

[7] = test system: EEF4 (TSC2+/+) cells; assay: S6K and 4EBP1 phosphorylation in EEF4 (TSC2+/+) fibroblasts; assay type: cell-based
[8] = test system: AMPK and TSC2 interaction; assay: Co-immunoprecipitation of endogenous AMPK and TSC2; assay type: cell-based, human; details: HEK293
Procedure: as §1

[9] = test system: phosphorylation of S6K, S6, 4EBP1 and mTOR; assay: Immunoblot of S6K, S6, 4EBP1 and mTOR phosphorylation in HEK293 cells under energy depletion; assay type: cell-based, human
Procedure: as §1

[10] = test system: intracellular ATP levels; assay: Intracellular ATP levels and AMP/ATP ratio; assay type: cell-based; details: 25 mM
[11] = test system: AMPK; details: Corton et al.; cited from earlier work
[12] = test system: Akt phosphorylation; assay: Immunoblot of Akt phosphorylation in HEK293 cells; assay type: cell-based, human; details: 25 mM 2-DG
Procedure: as §1

[13] = test system: AMPK; assay: Immunoblot of AMPK T172 phosphorylation (AMPK activation); assay type: cell-based; details: 25 mM
Procedure: as §1

## O=CC[C@@H](O)[C@H](O)[C@H](O)CO [2-DG, 2-deoxy-glucose]
[1]
  phosphorylation of eEF2: increase phosphorylation
[2]
  cell size: significantly decreased cell size; also recorded: decreases cell size
[2]; listed as 2DG
  cell size: decreases cell size
[3]
  phosphorylation of ACC and eEF2: 2-DG-induced phosphorylation of ACC and eEF2
[4]; EEF8, TSC2 T1227A/S1345A mutant expressing cells
  S6K and 4EBP1 phosphorylation: less responsive to 2-DG treatment
[4]; EEF8, vector infected cells
  S6K and 4EBP1 phosphorylation: caused little decrease
[4]; EEF8, wild type TSC2 expressing cells
  S6K and 4EBP1 phosphorylation: significantly decreased
[5]; 20 to 100 mM, Dennis et al., 2001
  S6K and 4EBP1 phosphorylation: inhibition of S6K and 4EBP1 phosphorylation
[5]; Kimura et al., Krause et al.
  S6K activity: inhibit S6K activity
[6]
  mobility of TSC1: did not alter the mobility of TSC1
[6]; 2-DG treatment
  mobility shift of TSC2: mobility shift is due to phosphorylation
[6]; 25 and 40 mM
  TSC2 phosphorylation (in vivo labeling, two dimensional phosphopeptide mapping): enhanced phosphorylation of several peptides; also recorded: induce TSC2 phosphorylation on multiple spots in vivo
[7]
  4EBP1 phosphorylation: inhibition of phosphorylation of 4EBP1
[8]
  interaction between endogenous AMPK and TSC2 (co-immunoprecipitation): interact preferentially with AMPK following 2-DG stimulation; also recorded: enhanced; also recorded: enhances the interaction between TSC2 and AMPK; also recorded: stimulates the interaction
[9]; 25 mM
  phosphorylation of S6K on T389: effectively inhibited; also recorded: dephosphorylation
  phosphorylation of S6 and 4EBP1: dephosphorylation
  phosphorylation of mTOR S2448: inhibited; also recorded: dephosphorylation
[9]; HEK293, TSC2 RNAi
  S6K phosphorylation in TSC2 RNAi knockdown cells: blocked in TSC2 knockdown cells, but not in the control cells; also recorded: knockdown of TSC2 by RNA interference blocks the 2-DG response
[9]; depletion of cellular ATP
  phosphorylation of S6K and 4EBP1: caused a dephosphorylation of S6K and 4EBP1
[10]
  AMP/ATP ratio: increase; also recorded: increases the AMP/ATP ratio
  ATP levels: statistically significant reduction; also recorded: decreases intracellular ATP levels
[11]
  AMPK activation: activate AMPK
[12]
  Akt phosphorylation: had little effect
[13]
  T172 phosphorylation in AMPK: dramatic increase of T172 phosphorylation; also recorded: induces phosphorylation of AMPK
[13]; time course
  AMPK activation and S6K dephosphorylation as a function of treatment time: rapid AMPK activation and concomitant dephosphorylation of S6K
